Measured values reported in publication PMC1253704, “Nitromusk and Polycyclic Musk Compounds as Long-Term Inhibitors of Cellular Xenobiotic Defense Systems Mediated by Multidrug Transporters” (Environmental Health Perspectives, 2004).
Where two headings read alike, the source gives them in different places. Marks after values point to notes of the source that are not given here.

Legend:
[1] = target: T1, efflux transporters in mussel gills (MXR transporters) (Mytilus californianus, UniProt B2WTH9); assay: Competitive substrate/transporter inhibition assay: rhodamine B accumulation in mussel gill tissue disks; assay type: cell-based; conditions: concentration causing 10% of maximal inhibition; mean ± SD; probit regression; 1 μM rhodamine B, 90 min, 15°C
T1 sequence (B2WTH9 1-1311): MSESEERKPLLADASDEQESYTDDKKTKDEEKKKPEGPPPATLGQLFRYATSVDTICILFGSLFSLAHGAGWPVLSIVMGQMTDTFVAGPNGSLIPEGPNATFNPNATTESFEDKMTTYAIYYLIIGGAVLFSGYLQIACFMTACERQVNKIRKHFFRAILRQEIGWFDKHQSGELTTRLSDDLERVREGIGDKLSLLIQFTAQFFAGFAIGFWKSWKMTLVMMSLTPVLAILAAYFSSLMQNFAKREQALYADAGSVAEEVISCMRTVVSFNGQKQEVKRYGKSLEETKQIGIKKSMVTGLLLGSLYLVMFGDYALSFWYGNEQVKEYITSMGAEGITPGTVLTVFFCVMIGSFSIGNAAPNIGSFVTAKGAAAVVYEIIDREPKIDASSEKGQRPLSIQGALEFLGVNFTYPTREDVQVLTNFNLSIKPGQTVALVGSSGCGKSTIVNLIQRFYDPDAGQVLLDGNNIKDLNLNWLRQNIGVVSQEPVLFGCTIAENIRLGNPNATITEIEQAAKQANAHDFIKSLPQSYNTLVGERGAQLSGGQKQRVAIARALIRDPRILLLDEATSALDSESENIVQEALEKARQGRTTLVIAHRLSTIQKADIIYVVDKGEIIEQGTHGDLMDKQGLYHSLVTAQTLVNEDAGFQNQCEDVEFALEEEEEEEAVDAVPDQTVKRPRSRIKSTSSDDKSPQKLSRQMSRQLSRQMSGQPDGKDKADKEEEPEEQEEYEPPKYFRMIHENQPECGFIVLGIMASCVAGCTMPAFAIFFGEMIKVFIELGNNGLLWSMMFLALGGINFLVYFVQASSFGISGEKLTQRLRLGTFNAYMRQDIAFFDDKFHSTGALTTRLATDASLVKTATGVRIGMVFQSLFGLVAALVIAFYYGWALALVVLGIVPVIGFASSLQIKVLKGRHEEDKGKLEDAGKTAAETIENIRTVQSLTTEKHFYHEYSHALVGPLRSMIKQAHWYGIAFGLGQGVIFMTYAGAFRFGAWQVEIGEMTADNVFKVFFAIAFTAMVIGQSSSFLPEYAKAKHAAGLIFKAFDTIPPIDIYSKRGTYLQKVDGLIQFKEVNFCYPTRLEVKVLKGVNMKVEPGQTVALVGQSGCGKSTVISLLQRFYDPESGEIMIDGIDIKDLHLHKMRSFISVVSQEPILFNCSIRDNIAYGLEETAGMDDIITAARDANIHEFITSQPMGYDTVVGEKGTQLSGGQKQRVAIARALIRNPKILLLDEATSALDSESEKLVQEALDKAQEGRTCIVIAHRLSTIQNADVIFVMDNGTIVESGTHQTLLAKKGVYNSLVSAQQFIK
Description: The fluorescent dye rhodamine B was used as an indicator of efflux transporter activity. […] Test solutions were prepared in FSW with 1 μM rhodamine B. Stocks of the test compounds dissolved in ethanol were added to FSW to the desired concentrations, and all solutions were adjusted to 1% ethanol along with an ethanol control. […] Incubations were performed in glass petri dishes (diameter, 5 cm) in a volume of 10 mL.
(§1) Gill tissue disks were incubated in test solutions with gentle rocking for 90 min at 15°C in the dark (n = 2–5 tissue disks per dish). After exposure, the tissue disks were briefly washed twice in FSW to remove external rhodamine B, frozen on dry ice or in liquid nitrogen, and stored at −20°C in the dark. […] The sonicates were then centrifuged at 13,000g for 5 min, and the supernatant was transferred to black 96-well microplates (Packard Instrument Co., Meriden, CT). The amount of dye in the supernatant was determined with a fluorescence microplate reader (Packard FluoroCount; […]). Rhodamine B extracts were kept dark and on ice at all times. At each reading, background fluorescence was determined with pure n-butanol and subtracted from each value.
(§2) Transport activities in treated gill disks were normalized relative to nontreated controls that were run for each individual. The ratios, which indicate relative increases in fluorescence, were used as a measure of inhibition by each compound at the specified concentrations. […] IC10 and IC50 values were determined by probit analysis using a macro program for Microsoft Excel written by J. Greve (Fraunhofer-Institut für Umweltchemie und Ökotoxikologie, Schmallenberg, Germany).

[2] = tested on: efflux transporters in mussel gills (MXR transporters); assay: Long-term inhibition: transporter activity assay after 2 hr exposure and 0, 24, 48 hr washing in FSW; assay type: cell-based, Mytilus californianus; conditions: 1 μM test compound 2 hr
Description: as §1
(§3) To examine the duration of inhibitory effects after exposure to test compounds, six to nine gill tissue disks were incubated with 1 μM of test compounds for 2 hr. Transporter activity was then assayed in one-third of the disks immediately after exposure and in the others after 24 hr and 48 hr of washing in fresh FSW (50 mL). FSW was changed after 24 hr. During exposure and washing, dishes were gently rocked at 15°C in the dark. The transporter activity assay was performed with 1 μM rhodamine B as described above.
as §2

[3] = cited from earlier work
[4] = target: T1, efflux transporters in mussel gills (MXR transporters); assay: Long-term inhibition: transporter activity assay after 2 hr exposure and 0, 24, 48 hr washing in FSW; assay type: cell-based; conditions: 1 μM test compound 2 hr
Description: as §1, §3, §2

[5] = set-up: method as in Käfferlein et al. 1998; conditions: ref Käfferlein et al. 1998, cited from earlier work
[6] = after 24 hr of washing, paired t-test p < 0.05

Compound | IC10 [1] [µM] | continuing inhibition of transporter activity, treatment versus control (in words) [2, 6] | continuing inhibition of transporter activity, treatment versus control (in words) ([2]; after 48 hr of washing) | Log Kow ([3]; ref Balk et al. (2001)) | continuing inhibition of transporter activity, treatment versus control (in words) [4, 6] | continuing inhibition of transporter activity, treatment versus control (in words) ([4]; after 48 hr of washing) | Concentrations found in blood plasma ([5]; human blood plasma) | Concentrations found in body fat and breast milk ([5]; human body fat and breast milk) [µmol/kg] | Log Kow ([3]; ref Liu (2004))
CC(=O)c1cc(C(C)(C)C)cc2c1CCC2(C)C [ADBI, 4-Acetyl-1,1-dimethyl-6-tert-butylindane] | 0.39 ± 0.34 | clear trends of increased rhodamine levels | trend of reduced activity | 5.9^a |  |  |  |  | 
CC(=O)c1cc2c(cc1C)C(C)(C)C(C)C2C(C)C (centres unmarked) [ATII, 5-Acetyl-1,1,2,6-tetramethyl-3-isopropylindane] | 0.32 ± 0.04 | significant | complete recovery | 6.3^a |  |  |  |  | 
CC1COCc2cc3c(cc21)C(C)(C)C(C)C3(C)C (centres unmarked) [HHCB, 1,3,4,6,7,8-Hexahydro-4,6,6,7,8,8-hexamethyl-cyclopenta-γ-[2]-benzopyran] | 0.37 ± 0.16 | significant | trend of reduced activity | 5.9^a |  |  |  |  | 
CC(=O)c1c(C)c([N+](=O)[O-])c(C(C)(C)C)c([N+](=O)[O-])c1C [MK, 1-tert-Butyl-3,5-dimethyl-2,6-dinitro-4-acetylbenzene] | 0.09 ± 0.12 | clear trends of increased rhodamine levels | trend of reduced activity | 4.3^a |  |  |  |  | 
Cc1c([N+](=O)[O-])c(C)c([N+](=O)[O-])c(C(C)(C)C)c1[N+](=O)[O-] [MX, 1-tert-Butyl-3,5-dimethyl-2,4,6-trinitrobenzene] | 0.14 ± 0.12 |  |  | 4.9^a | significant | trend of reduced activity | nanomolar range | 0.2 to 0.3 | 
CCN(CC)c1ccc2c(-c3ccccc3C(=O)O)c3ccc(=[N+](CC)CC)cc-3oc2c1 [Rhodamine B, reference compound] |  |  |  |  |  |  |  |  | 1.5^c
